Experimental data as given in patent US9833497B2, “Human originated EGF domain proteins and use of the same” (CHENGDU SOURCEBIO LIMITED-LIABILITY COMPANY, priority 2013, dated 2017).

Experiments:
Assay type in all cases: cell-based
[1] = test system: E. coli DH5α; assay: Antibacterial activity: MIC and growth curve against E. coli DH5α in 96-well plate; details: minimal inhibitory concentration against E. coli DH5α; 96-well plate, 5×10^5 CFU/mL, 37° C., judged after 8 h
How it was run: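 Log-phase bacteria (OD600 ~0.5) resuspended in LB at 5×10^5 CFU/mL, exposed to recombinant protein at 50, 25, 12.5 μg/mL final in triplicate, 37 °C shaking at 175 rpm. OD600 read every 30 min; MIC is lowest concentration showing no growth.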

[2] = test system: E. coli BL21; assay: MIC against Gram-negative bacteria: E. coli BL21; details: 5×10^5 CFU/mL
How it was run: (§1)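 Two-fold serial dilutions of each purified human EGF domain protein, three replicate wells per level, were combined with bacteria at a final 5×10^5 CFU/mL in LB. Cultures were shaken at 175 rpm, 37° C. The MIC was taken as the minimum concentration preventing growth.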

[3] = test system: Pseudomonas aeruginosa; assay: MIC against Gram-negative bacteria: Pseudomonas aeruginosa; details: 5×10^5 CFU/mL
How it was run: as §1

[4] = test system: Klebsiella pneumonia; assay: MIC against Gram-negative bacteria: Klebsiella pneumonia; details: 5×10^5 CFU/mL
How it was run: as §1

[5] = test system: Enterobacter cloacae; assay: MIC against Gram-negative bacteria: Enterobacter cloacae; details: 5×10^5 CFU/mL
How it was run: as §1

[6] = test system: Aeromonas hydrophila; assay: MIC against Gram-negative bacteria: Aeromonas hydrophila; details: 5×10^5 CFU/mL
How it was run: as §1

[7] = test system: Citrobacter diversus; assay: MIC against Gram-negative bacteria: Citrobacter diversus; details: 5×10^5 CFU/mL
How it was run: as §1

[8] = test system: Moraxella catarrhalis; assay: MIC against Gram-negative bacteria: Moraxella catarrhalis; details: 5×10^5 CFU/mL
How it was run: as §1

[9] = test system: Proteus mirabilis; assay: MIC against Gram-negative bacteria: Proteus mirabilis; details: 5×10^5 CFU/mL
How it was run: as §1

[10] = test system: Proteus vulgaris; assay: MIC against Gram-negative bacteria: Proteus vulgaris; details: 5×10^5 CFU/mL
How it was run: as §1

[11] = test system: Serratia marcescens; assay: MIC against Gram-negative bacteria: Serratia marcescens; details: 5×10^5 CFU/mL
How it was run: as §1

[12] = E. coli BL21, 10 h cultivation at 37° C.
[13] = P. aeruginosa, 10 h cultivation at 37° C.
[14] = K. pneumonia, 10 h cultivation at 37° C.
[15] = E. cloacae, 10 h cultivation at 37° C.
[16] = A. hydrophila, 10 h cultivation at 37° C.
[17] = C. diversus, 10 h cultivation at 37° C.
[18] = M. catarrhalis, 10 h cultivation at 37° C.
[19] = P. mirabilis, 10 h cultivation at 37° C.
[20] = P. vulgaris, 10 h cultivation at 37° C.
[21] = S. marcescens, 10 h cultivation at 37° C.
[22] = E. coli BL21, 96-well plate, 37° C., 10 h
[23] = Pseudomonas aeruginosa, 96-well plate, 37° C., 10 h
[24] = Klebsiella pneumonia, 96-well plate, 37° C., 10 h
[25] = Enterobacter cloacae, 96-well plate, 37° C., 10 h
[26] = Aeromonas hydrophila, 96-well plate, 37° C., 10 h
[27] = Citrobacter diversus, 96-well plate, 37° C., 10 h
[28] = Moraxella catarrhalis, 96-well plate, 37° C., 10 h
[29] = Proteus mirabilis, 96-well plate, 37° C., 10 h
[30] = Proteus vulgaris, 96-well plate, 37° C., 10 h
[31] = Serratia marcescens, 96-well plate, 37° C., 10 h
[32] = 10 h cultivation at 37° C., two-fold serial dilution

| Substance | MIC [1] [µg/mL] | MIC (μg/mL) E. coli BL21 [2, 12] [µg/mL] | MIC (μg/mL) P. aeruginosa [3, 13] [µg/mL] | MIC (μg/mL) K. pneumonia [4, 14] [µg/mL] | MIC (μg/mL) E. cloacae [5, 15] [µg/mL] | MIC (μg/mL) A. hydrophila [6, 16] [µg/mL] | MIC (μg/mL) C. diversus [7, 17] [µg/mL] | MIC (μg/mL) M. catarrhalis [8, 18] [µg/mL] | MIC (μg/mL) P. mirabilis [9, 19] [µg/mL] | MIC (μg/mL) P. vulgaris [10, 20] [µg/mL] | MIC (μg/mL) S. marcescens [11, 21] [µg/mL] | also measured |
| --- | --- | --- | --- | --- | --- | --- | --- | --- | --- | --- | --- | --- |
| PRT220 (DINECETTNECREDEMCWNYHGGFRCYPRNPCQDPYILTPENRCV; listed as Homo sapiens) | 25 | 25 | 12.5 | 25 | 12.5 | 25 | 12.5 | 12.5 | 12.5 | 12.5 | 50 |  |
| PRT1273 (DVDECEREDNAGCVHDCVNIPGNYRCTCYDGFHLAHDGHNCL; listed as Homo sapiens) | 12.5 |  |  |  |  |  |  |  |  |  |  | MIC against E. coli BL21 [2, 22]: 50 µg/mL; MIC against P. aeruginosa [3, 23]: 12.5 µg/mL; MIC against K. pneumonia [4, 24]: 50 µg/mL; MIC against E. cloacae [5, 25]: 12.5 µg/mL; MIC against A. hydrophila [6, 26]: 50 µg/mL; MIC against C. diversus [7, 27]: 25 µg/mL; MIC against M. catarrhalis [8, 28]: 12.5 µg/mL; MIC against P. mirabilis [9, 29]: 50 µg/mL; MIC against P. vulgaris [10, 30]: 12.5 µg/mL; MIC against S. marcescens [11, 31]: 50 µg/mL |
| PRT127 (CSGHCTSYGTNCENGGKCLERYHGYSCDCSNTAYDGTFCN; listed as Homo sapiens) | 12.5 |  |  |  |  |  |  |  |  |  |  | MIC (μg/mL) E. coli BL21 [2, 22]: 12.5 µg/mL; MIC (μg/mL) P. aeruginosa [3, 23]: 12.5 µg/mL; MIC (μg/mL) K. pneumonia [4, 24]: 25 µg/mL; MIC (μg/mL) E. cloacae [5, 25]: 12.5 µg/mL; MIC (μg/mL) A. hydrophila [6, 26]: 25 µg/mL; MIC (μg/mL) C. diversus [7, 27]: 12.5 µg/mL; MIC (μg/mL) M. catarrhalis [8, 28]: 12.5 µg/mL; MIC (μg/mL) P. mirabilis [9, 29]: 12.5 µg/mL; MIC (μg/mL) P. vulgaris [10, 30]: 12.5 µg/mL; MIC (μg/mL) S. marcescens [11, 31]: 12.5 µg/mL |
| PRT866 (CQCHGHAARCAARARPPRCHCRHHTTGPGCESCRPSHRDWPWRPATPRHPHPCLP; listed as Homo sapiens) | 25 | 12.5 | 25 | 12.5 | 12.5 | 12.5 | 12.5 | 12.5 | 12.5 | 25 | 12.5 |  |
| PRT1106 (NTDECASQPCLHGGLCVDGENRYSCNCTGSGFTGTHCE; listed as Homo sapiens) | 25 |  |  |  |  |  |  |  |  |  |  | MIC E. coli BL21 [2, 32]: 25 µg/mL; MIC P. aeruginosa [3, 32]: 12.5 µg/mL; MIC K. pneumonia [4, 32]: 25 µg/mL; MIC E. cloacae [5, 32]: 50 µg/mL; MIC A. hydrophila [6, 32]: 12.5 µg/mL; MIC C. diversus [7, 32]: 25 µg/mL; MIC M. catarrhalis [8, 32]: 50 µg/mL; MIC P. mirabilis [9, 32]: 25 µg/mL; MIC P. vulgaris [10, 32]: 12.5 µg/mL; MIC S. marcescens [11, 32]: 50 µg/mL |
| PRT153 (DCLACQGGSQRPCSGNGHCSGDGSRQGDGSCRCHMGYQGPLCT; listed as Homo sapiens) | 12.5 | 100 | 50 | 12.5 | 25 | 50 | 25 | 12.5 | 50 | 12.5 | 50 |  |
